Measured values: patent US9096591B2, “Tetracyclic compounds” (Medivation Technologies, Inc., priority 2007, dated 2015)
Where two headings read alike, the source gives them in different places.

Key:
[1] = target: T1, human recombinant histamine H1 receptor (Homo sapiens, UniProt P35367); experiment: Histamine H1 radioligand binding ([3H]Pyrilamine); conditions: for inhibition at 0.03 µM: 0.03 μM compound; for inhibition at 0.1 µM: 0.1 μM compound
T1 construct: expressed in transfected cells; host or cells: CHO cells
Description: To evaluate in radioligand binding assays the activity of compounds of the invention, human recombinant histamine H1 receptor expressed in Chinese hamster ovary (CHO) cells (De Backer M D et al. Biochem. Biophys. Res Comm. 197(3):1601, 1993) in a modified Tris-HCl buffer (50 mM Tris-HCl, pH 7.4, 2 mM MgCl2, 100 mM NaCl, 250 mM Sucrose) were used. […] Non-specific binding was estimated in the presence of 1 μM pyrilamine. Receptor proteins were filtered and washed, the filters were then counted to determine [^3H]pyrilamine specifically bound. […] Biochemical assay results are presented as the percent inhibition of specific binding in Table 5.
To evaluate in radioligand binding assays the activity of compounds of the invention, human recombinant histamine H1 receptor expressed in Chinese hamster ovary (CHO) cells (De Backer, M. D. et al., Biochem. Biophys. Res. Comm. 197(3):1601, 1993) in a modified Tris-HCl buffer (50 mM Tris-HCl, pH 7.4, 2 mM MgCl2, 100 mM NaCl, 250 mM Sucrose) was used. […] Non-specific binding was estimated in the presence of 1 μM pyrilamine. Receptor proteins were filtered and washed, the filters were then counted to determine [^3H]Pyrilamine specifically bound. Compounds were screened at 1 μM, using 1% DMSO as vehicle. Biochemical assay results are presented as the percent inhibition of specific binding in Table 6.

[2] = target: T2, human recombinant histamine H2 receptor (Homo sapiens, UniProt P25021); experiment: Histamine H2 radioligand binding ([125I]Aminopotentidine); conditions: for inhibition at 0.3 µM: 0.3 μM compound
T2 construct: expressed in transfected cells; host or cells: CHO-K1 cells
Description: Non-specific binding was estimated in the presence of 3 μM Tiotidine. […] Biochemical assay results are presented as the percent inhibition of specific binding in Table 5.
Non-specific binding was estimated in the presence of 3 μM Tiotidine. […] Compounds were screened at 1 μM, using 1% DMSO as vehicle. Biochemical assay results are presented as the percent inhibition of specific binding in Table 6.

[3] = target: T3, human recombinant dopamine D2L receptor (Homo sapiens, UniProt P14416); experiment: Dopamine D2L radioligand binding ([3H]Spiperone); conditions: percent inhibition of specific binding
T3 construct: expressed in transfected cells; host or cells: CHO cells
Description: Non-specific binding was estimated in the presence of 10 μM Haloperidol. Receptor proteins were filtered and washed, the filters were then counted to determine [^3H]Spiperone specifically bound. […] Biochemical assay results are presented as the percent inhibition of specific binding in Table 6.

[4] = percent inhibition of specific binding, screened at 1 μM, read-out: Inhibition of ligand binding, Hist. H1
[5] = percent inhibition of specific binding, screened at 1 μM, read-out: Inhibition of ligand binding, Hist. H2
[6] = […] [3H]Pyrilamine, read-out: Histamine Binding H1, percent inhibition of specific binding
[7] = 1 μM compound, […] [3H]Pyrilamine, read-out: Histamine Binding H1, percent inhibition of specific binding
[8] = 0.1 nM [125I]Aminopotentidine, read-out: Histamine Binding H2, percent inhibition of specific binding
[9] = 1 μM compound, 0.1 nM [125I]Aminopotentidine, read-out: Histamine Binding H2, percent inhibition of specific binding

T2 sequence (P25021 whole entry): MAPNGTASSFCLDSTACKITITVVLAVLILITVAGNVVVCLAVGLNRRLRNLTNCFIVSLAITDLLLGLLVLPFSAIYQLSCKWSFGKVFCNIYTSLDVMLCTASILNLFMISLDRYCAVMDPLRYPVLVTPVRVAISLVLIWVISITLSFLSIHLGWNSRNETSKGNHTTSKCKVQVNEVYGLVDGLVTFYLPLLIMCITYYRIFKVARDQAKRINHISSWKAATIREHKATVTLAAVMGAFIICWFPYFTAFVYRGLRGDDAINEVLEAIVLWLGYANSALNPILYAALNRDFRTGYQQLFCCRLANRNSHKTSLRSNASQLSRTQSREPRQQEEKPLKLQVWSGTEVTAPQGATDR
T1 sequence (P35367 whole entry): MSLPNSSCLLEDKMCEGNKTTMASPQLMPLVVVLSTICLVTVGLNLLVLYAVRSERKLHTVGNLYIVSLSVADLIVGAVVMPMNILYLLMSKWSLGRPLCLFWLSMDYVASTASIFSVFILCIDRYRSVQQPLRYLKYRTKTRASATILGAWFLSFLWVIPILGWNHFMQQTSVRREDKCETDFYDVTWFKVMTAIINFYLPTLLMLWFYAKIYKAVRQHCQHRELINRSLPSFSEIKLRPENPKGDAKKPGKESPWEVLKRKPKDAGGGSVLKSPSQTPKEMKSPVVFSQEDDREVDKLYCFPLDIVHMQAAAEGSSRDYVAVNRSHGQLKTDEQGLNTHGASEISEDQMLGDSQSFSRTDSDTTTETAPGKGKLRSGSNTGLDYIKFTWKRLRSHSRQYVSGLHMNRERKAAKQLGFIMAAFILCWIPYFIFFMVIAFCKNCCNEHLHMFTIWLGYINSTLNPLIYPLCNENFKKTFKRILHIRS
T3 sequence (P14416 whole entry): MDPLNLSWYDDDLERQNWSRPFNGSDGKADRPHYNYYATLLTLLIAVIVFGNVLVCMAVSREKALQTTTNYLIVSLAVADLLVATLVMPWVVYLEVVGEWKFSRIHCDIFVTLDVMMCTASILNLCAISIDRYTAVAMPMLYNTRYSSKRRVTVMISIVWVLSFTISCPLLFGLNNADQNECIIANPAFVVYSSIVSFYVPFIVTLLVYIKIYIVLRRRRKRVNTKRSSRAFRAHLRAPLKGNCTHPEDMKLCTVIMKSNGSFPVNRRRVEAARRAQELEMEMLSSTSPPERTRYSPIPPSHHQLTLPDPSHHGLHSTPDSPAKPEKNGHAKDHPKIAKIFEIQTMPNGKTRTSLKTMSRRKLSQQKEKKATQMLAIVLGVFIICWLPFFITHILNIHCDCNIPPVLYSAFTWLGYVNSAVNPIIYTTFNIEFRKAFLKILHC

SMILES	inhibition at 1 µM [1, 4] [%]	inhibition at 1 µM [2, 5] [%]	inhibition at 1 µM [1, 7] [%]	inhibition at 1 µM [2, 9] [%]	also measured
Cc1ccc(C(O)Cn2c3c(c4ccccc42)CN(C)CC3)cc1 (stereo not shown) [Compound 7]	47	58	–	–	–
CN1CCc2c(c3cc(Cl)ccc3n2C[C@@](C)(O)c2ccc(F)cc2)C1 [Compound 110]	–	–	–	–	Inhibition of ligand binding, Dop. D2L [3]: 35%
CN1CCc2c(c3cc(Cl)ccc3n2CCc2n[nH]c(=S)n2C)C1(C)C [Compound 218]	–	–	–	34	Histamine Binding H1, percent inhibition of specific binding ([1]; 1 μM compound, […] [3H]Pyrilamine): 80%
CN1Cc2c(n(CCc3n[nH]c(=S)n3C)c3ccc(C(F)(F)F)cc23)CC1(C)C [Compound 219]	–	–	89	71	–

The next lines start with results.

inhibition at 1 µM [1, 4] [%]	inhibition at 1 µM [2, 5] [%]	inhibition at 1 µM [1, 7] [%]	inhibition at 1 µM [2, 9] [%]	SMILES	also measured
96	73	96	73	CCN1CCc2c(c3cc(C)ccc3n2CCc2ccc(C)cc2)C1 [Compound 26]	inhibition at 0.03 µM [1, 6]: 67%; inhibition at 0.1 µM [1, 6]: 81%; inhibition at 0.3 µM [2, 8]: 34%
–	–	99	54	Cc1ccc2c(c1)c1c(n2CCc2ccccc2)CCN(C2CC2)C1 [Compound 35, 2-cyclopropyl-2,3,4,5-tetrahydro-8-methyl-5-phenethyl-1H-pyrido[4,3-b]indole]	–
101	53	101	53	CCN1CCc2c(c3cc(C)ccc3n2CCc2ccccc2)C1 [Compound 37]	inhibition at 0.03 µM [1, 6]: 59%; inhibition at 0.1 µM [1, 6]: 78%; inhibition at 0.3 µM [2, 8]: 22%
–	–	-4	13	CCOC(=O)N1CCc2c(c3cc(C)ccc3n2CCc2cccnc2)C1 [Compound 217]	–
